Results: US11446298B2, “Pyrimidine derivatives” (Idorsia Pharmaceuticals Ltd, priority 2017, dated 2022)
pIC50: −log10 of the molar value.

Legend:
EP2 = molecular target: T1, EP2 (Homo sapiens, UniProt P43116); assay: hEP2 cAMP Assay (SF295 glioblastoma cells, HTRF cAMP, PGE2 75 nM); format: cell-based; conditions: antagonistic activity, PGE2 75 nM (EC80)
T1 construct: SF295 glioblastoma cells express high endogenous EP2 and no EP4; host or cells: SF295 glioblastoma cells
Description: (§1) The antagonistic activities of the compounds of formula (I) on the EP2 and EP4 receptors are also determined in accordance with the following experimental method.
(§2) Human tumor cell lines expressing endogenously either EP4 or EP2 are used and cAMP accumulation in cells upon PGE2 stimulation is monitored. SF295 glioblastoma cells express high endogenous EP2 and no EP4, whereas BT549 breast cancer cells, express high endogenous EP4 levels and very low EP2 levels.
(§3) As a detection method for cAMP the HTRF (homogeneous time resolved fluorescence) Cisbio kit (HTRF cAMP dynamic 2 kit 20′000 tests Cisbio Cat. #62AM4PEC) was used, which is based on a competitive immunoassay using a Cryptate-labeled anti-cAMP antibody and d2-labeled cAMP. Native cAMP produced by cells or unlabeled cAMP (for the standard curve) compete with exogenously added d2-labeled cAMP (acceptor) for binding to monoclonal anti-cAMP-Eu3+Cryptate (donor). A FRET signal (Fluorescence Resonance Energy Transfer) is obtained only if the labeled anti-cAMP antibody binds the d2 labelled cAMP, thus the specific signal (i.e. energy transfer) is inversely proportional to the concentration of cAMP in the standard or sample.
(§4) The SF295 cells (NCI/No. 0503170) are detached from culture dishes with a cell dissociation buffer (Invitrogen, 13151-014), and collected in growing medium (GM: RPM11640 (Invitrogen 21875)/10% FCS, 1% Penicilin/streptomycin). Cells are counted washed and resuspended in assay buffer (AB; HBSS, 20 mM HEPES, 0.2% BSA; 2 mM IBMX). 4′000 cells in 5 μL of AB are seeded per well of a small volume 384 well plate (black with flat bottom, Greiner 784076).
(§5) Stock solutions of test compounds are made at a concentration of 10 mM in DMSO, and serially diluted in DMSO to concentrations required for inhibition dose response curves (tested concentration range 30 μM-0.4 nM; 30 μM-0.015 nM or 1 μM-0.01 nM).
PGE2 (Cayman 14010, stock solution: 75 μM in DMSO) is used as agonist at 75 nM final concentration, corresponding to EC80.
(§6) 2.5 μL of diluted compounds are transferred into the assay plate. Plate is pre-incubated 45 minutes at room temperature. Subsequently, 2.5 μL of PGE2 (final conc. 75 nM) are transferred into the assay plate. Plate is incubated 30 minutes at room temperature. Five μL of each donor (anti-cAMP cryptate) and acceptor (cAMP-d2) are added and the plate is incubated another hour at room temperature in the dark and then read using a BMG LABTECH PHERAstar reader (Excitation: 337 nm, Emission: 620 and 665 nm).
(§7) The obtained Delta F (fluorescence) values (665 nm/620 nM) are converted into % cAMP values using the measurements of the cAMP calibrator provided in the kit. For each compound concentration the percentage of cAMP compared to DMSO control value as average ±STDEV (each concentration is measured in duplicate) is calculated.
(§8) IC50 values and curves are generated with XLfit software (IDBS) using Dose-Response One Site model 203. When compounds were measured multiple times, mean values are given.

EP4 = molecular target: T2, EP4 (Homo sapiens, UniProt P35408); assay: hEP4 cAMP Assay (BT549 breast cancer cells, HTRF cAMP, PGE2 6 nM); format: cell-based; conditions: antagonistic activity, PGE2 6 nM (EC80)
T2 construct: BT549 breast cancer cells, express high endogenous EP4 levels and very low EP2 levels; host or cells: BT549 breast cancer cells
T2 sequence (P35408 whole entry): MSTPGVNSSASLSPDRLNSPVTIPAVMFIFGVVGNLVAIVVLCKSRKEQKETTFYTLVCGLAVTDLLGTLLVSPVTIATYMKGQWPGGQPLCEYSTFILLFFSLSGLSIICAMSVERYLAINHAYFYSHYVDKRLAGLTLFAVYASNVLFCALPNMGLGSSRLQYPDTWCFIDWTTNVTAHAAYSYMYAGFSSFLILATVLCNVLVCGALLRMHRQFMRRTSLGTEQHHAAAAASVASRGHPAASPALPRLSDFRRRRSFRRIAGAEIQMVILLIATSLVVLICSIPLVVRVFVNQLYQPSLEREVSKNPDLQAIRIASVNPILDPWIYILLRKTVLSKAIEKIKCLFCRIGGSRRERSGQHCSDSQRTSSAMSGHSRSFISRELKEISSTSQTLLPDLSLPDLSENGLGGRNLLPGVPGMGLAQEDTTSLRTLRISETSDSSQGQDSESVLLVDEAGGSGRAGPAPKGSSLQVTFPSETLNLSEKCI
Description: as §1, §2, §3
as §4, with “BT549” for “SF295”, “0507282)” for “0503170)”, “RPMI1640” for “RPM11640”
as §5
PGE2 (Cayman 14010, stock solution: 6 uM in DMSO) is used as agonist at 6 nM final concentration, corresponding to EC80.
as §6, with “6” for “75”, “5” for “Five”
as §7, §8

T1 sequence (P43116 whole entry): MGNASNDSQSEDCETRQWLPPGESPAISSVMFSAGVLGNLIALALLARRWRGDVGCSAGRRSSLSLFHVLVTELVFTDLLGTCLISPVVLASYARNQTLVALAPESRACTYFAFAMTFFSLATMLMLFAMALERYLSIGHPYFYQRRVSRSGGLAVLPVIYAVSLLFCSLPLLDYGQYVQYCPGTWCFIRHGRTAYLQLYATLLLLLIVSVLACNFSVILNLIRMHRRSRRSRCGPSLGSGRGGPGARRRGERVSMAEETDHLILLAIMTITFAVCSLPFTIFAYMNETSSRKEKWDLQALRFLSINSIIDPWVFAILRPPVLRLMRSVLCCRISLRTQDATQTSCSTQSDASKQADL

Compound | pIC50 (EP2) | pIC50 (EP4)
CCOc1cc(-c2cc(NCCc3c(C)c(C)cc4ccccc34)ncn2)ccc1C(=O)O [Example 11, 4-{6-[2-(2,3-Dimethyl-naphthalen-1-yl)-ethylamino]-pyrimidin-4-yl}-2-ethoxy-benzoic acid] | 6.58 | 6.05
COc1ccc2ccccc2c1CCNc1cc(-c2cc(OCCO)c(C(=O)O)s2)ncn1 [Example 156, 3-(2-Hydroxy-ethoxy)-5-{6-[2-(2-methoxy-naphthalen-1-yl)-ethylamino]-pyrimidin-4-yl}-thiophene-2-carboxylic acid] | 8.15 | 7.29
CCOc1cc(-c2cc(NCCc3cccc4sccc34)ncn2)ccc1C(=O)O [Example 106, 4-[6-(2-Benzo[b]thiophen-4-yl-ethylamino)-pyrimidin-4-yl]-2-ethoxy-benzoic acid] | 6.59 | 6.06
COc1ccc2cccc(CCNc3cc(-c4cc(C(F)(F)F)c(C(=O)O)s4)ncn3)c2n1 [Example 150, 5-{6-[2-(2-Methoxy-quinolin-8-yl)-ethylamino]-pyrimidin-4-yl}-3-trifluoromethyl-thiophene-2-carboxylic Acid] | 6.28 | 6.49
COc1ccc2c(OC)cccc2c1CCNc1cc(-c2ccc(C(=O)O)c(OC3CCC3)c2)ncn1 [Example 52, 2-Cyclobutoxy-4-{6-[2-(2,5-dimethoxy-naphthalen-1-yl)-ethylamino]-pyrimidin-4-yl}-benzoic acid] | 6.11 | 6.12
CCOc1cc(-c2cc(NCCc3cccc4c3OCO4)ncn2)sc1C(=O)O [Example 36, 5-[6-(2-Benzo[1,3]dioxol-4-yl-ethylamino)-pyrimidin-4-yl]-3-ethoxy-thiophene-2-carboxylic acid] | 6.58 | 6.43
CCOc1cc(-c2cc(NCCc3cccc4ccccc34)ncn2)ccc1OCC(=O)O [Example 77] | 6.38 | 6.39
CCOc1cc(-c2cc(NCCc3cccc4cc(C)oc34)ncn2)ccc1OCC(=O)O [Example 75, (2-Ethoxy-4-{6-[2-(2-methyl-benzofuran-7-yl)-ethylamino]-pyrimidin-4-yl}-phenoxy)-acetic acid] | 6.01 | 6.05
CCCOc1ccc2ccccc2c1CCNc1cc(-c2cc(OCC)c(C(=O)O)s2)ncn1 [Example 38, 3-Ethoxy-5-{6-[2-(2-propoxy-naphthalen-1-yl)-ethylamino]-pyrimidin-4-yl}-thiophene-2-carboxylic acid] | 7.66 | 7.32
CCOc1cc(-c2cc(NCCc3c(OC)ccc4c(OC)cccc34)ncn2)ccc1OCC(=O)O [Example 55, (4-{6-[2-(2,5-Dimethoxy-naphthalen-1-yl)-ethylamino]-pyrimidin-4-yl}-2-ethoxy-phenoxy)-acetic acid] | 6.08 | 6.52
CCOc1cc(-c2cc(NCCc3cccc4ccsc34)ncn2)ccc1CC(=O)O [Example 105, {4-[6-(2-Benzo[b]thiophen-7-yl-ethylamino)-pyrimidin-4-yl]-2-ethoxy-phenyl}-acetic acid] | 6.11 | 6.16
Cc1ccc2c(cnn2C)c1CCNc1cc(-c2ccc(-c3c(O)c(=O)c3=O)cc2)ncn1 [Example 92, 3-(4-{6-[2-(1,5-Dimethyl-1H-indazol-4-yl)-ethylamino]-pyrimidin-4-yl}-phenyl)-4-hydroxy-cyclobut-3-ene-1,2-dione] | 6.54 | 6.26
CCOc1cc(-c2cc(NCCc3cccc4sccc34)ncn2)ccc1CC(=O)O [Example 110, {4-[6-(2-Benzo[b]thiophen-4-yl-ethylamino)-pyrimidin-4-yl]-2-ethoxy-phenyl}-acetic acid] | 6.06 | 6.22
COc1ccc2c(c1CCNc1cc(-c3ccc(C(=O)O)c(OC4CCC4)c3)ncn1)OCO2 [Example 43, 2-Cyclobutoxy-4-{6-[2-(5-methoxy-benzo[1,3]dioxol-4-yl)-ethylamino]-pyrimidin-4-yl}-benzoic acid] | 6.60 | 6.10
CCOc1cc(-c2cc(NCCc3cccc4ccn(C)c34)ncn2)ccc1OCC(=O)O [Example 50, (2-Ethoxy-4-{6-[2-(1-methyl-1H-indol-7-yl)-ethylamino]-pyrimidin-4-yl}-phenoxy)-acetic acid] | 6.40 | 6.20
O=C(O)c1ccc(-c2cc(NCCc3cccc4cccnc34)ncn2)cc1OC1CCC1 [Example 22, 2-Cyclobutoxy-4-[6-(2-quinolin-8-yl-ethylamino)-pyrimidin-4-yl]-benzoic acid] | 6.02 | 6.21
CCOc1cc(-c2cc(NCCc3cccc4ccsc34)ncn2)ccc1OCC(=O)O [Example 104] | 6.47 | 6.45
COc1cc(CCNc2cc(-c3ccc(C(=O)O)c(OC4CCC4)c3)ncn2)c2ccccc2c1 [Example 41, 2-Cyclobutoxy-4-{6-[2-(3-methoxy-naphthalen-1-yl)-ethylamino]-pyrimidin-4-yl}-benzoic acid] | 6.53 | 6.15
CCOc1cc(-c2cc(NCCc3c(Br)ccc4ccccc34)ncn2)sc1C(=O)O [Example 10, 5-{6-[2-(2-Bromo-naphthalen-1-yl)-ethylamino]-pyrimidin-4-yl}-3-ethoxy-thiophene-2-carboxylic acid] | 8.30 | 7.66
COc1ccc(CCNc2cc(-c3ccc(C(=O)O)c(OC4CCC4)c3)ncn2)c2ccccc12 [Example 58, 2-Cyclobutoxy-4-{6-[2-(4-methoxy-naphthalen-1-yl)-ethylamino]-pyrimidin-4-yl}-benzoic acid] | 6.08 | 6.40
5-{6-[2-(6-Fluoro-2-methoxy-quinolin-8-yl)-ethylamino]-pyrimidin-4-yl}-3-trifluoromethyl-thiophene-2-carboxylic acid [Example 153] | 6.36 | 6.55
CCOc1cc(-c2cc(NCCc3c(C)ccc4c3cnn4C)ncn2)ccc1OCC(=O)O [Example 80, (4-{6-[2-(1,5-Dimethyl-1H-indazol-4-yl)-ethylamino]-pyrimidin-4-yl}-2-ethoxy-phenoxy)-acetic acid] | 6.47 | 6.31
CCOc1cc(-c2cc(NCCc3ccc(OC)c4ccccc34)ncn2)ccc1OCC(=O)O [Example 60, (2-Ethoxy-4-{6-[2-(4-methoxy-naphthalen-1-yl)-ethylamino]-pyrimidin-4-yl}-phenoxy)-acetic acid] | 6.07 | 6.42
CCOc1cc(-c2cc(NCCc3cc(OC)cc4ccccc34)ncn2)ccc1C(=O)O [Example 40, 2-Ethoxy-4-{6-[2-(3-methoxy-naphthalen-1-yl)-ethylamino]-pyrimidin-4-yl}-benzoic acid] | 6.28 | 6.07
CCNC(=O)Nc1ccc(-c2cc(NCCc3c(OC)ccc4ncccc34)ncn2)cc1OC [Example 98, 1-Ethyl-3-(2-methoxy-4-{6-[2-(6-methoxy-quinolin-5-yl)-ethylamino]-pyrimidin-4-yl}-phenyl)-urea] | 6.45 | 6.47
